Test results: publication PMC4739419, “Mutations in the nucleotide binding and hydrolysis domains of Helicobacter pylori MutS2 lead to altered biochemical activities and inactivation of its in vivo function” (BMC Microbiology, 2016)

B1: ssDNA 63-mer (ODN4) (ssDNA)
DNA: ATCGATAGTCGGATCCTCCAGACAGCTCCATGTAGCAAGGCACTGGTAGAATTCGGCAGCGTC

Assays:
[1] = biological target: T1, HpMutS2-G338R (Helicobacter pylori, UniProt O25338, G338R); experiment: Tryptophan fluorescence-quenching nucleotide binding assay; conditions: no divalent metal ions, protein 1 μM, 25 °C; read-out: Kd (dissociation constant)
T1 construct: (A) HpMutS2-G338R (1-762): Mol. wt; (kDa): 87.9; His6 (C); made in house; host or cells: E. coli Rosetta (DE3) pLysS
T1 sequence (O25338 1-762 G338R): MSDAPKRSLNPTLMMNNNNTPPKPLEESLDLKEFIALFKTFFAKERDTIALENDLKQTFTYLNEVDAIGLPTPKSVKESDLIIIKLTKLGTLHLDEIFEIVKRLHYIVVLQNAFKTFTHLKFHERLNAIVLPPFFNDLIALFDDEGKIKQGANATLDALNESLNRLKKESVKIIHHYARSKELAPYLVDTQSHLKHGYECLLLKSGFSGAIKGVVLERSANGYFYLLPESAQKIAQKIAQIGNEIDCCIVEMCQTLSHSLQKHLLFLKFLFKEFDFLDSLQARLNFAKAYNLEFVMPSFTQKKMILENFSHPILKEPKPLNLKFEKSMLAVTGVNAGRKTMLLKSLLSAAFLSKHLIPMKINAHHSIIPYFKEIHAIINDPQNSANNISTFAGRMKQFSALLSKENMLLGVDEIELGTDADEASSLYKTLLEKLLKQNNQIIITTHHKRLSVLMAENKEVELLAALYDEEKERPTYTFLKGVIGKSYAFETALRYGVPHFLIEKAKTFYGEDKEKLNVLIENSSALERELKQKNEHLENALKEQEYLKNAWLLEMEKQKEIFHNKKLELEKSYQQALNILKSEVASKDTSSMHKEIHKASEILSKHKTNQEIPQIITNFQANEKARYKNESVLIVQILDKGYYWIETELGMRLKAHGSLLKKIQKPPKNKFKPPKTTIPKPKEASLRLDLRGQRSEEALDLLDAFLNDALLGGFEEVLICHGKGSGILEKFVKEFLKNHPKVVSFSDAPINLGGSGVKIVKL
Description: (§1) Next, the ATP hydrolysing abilities of HpMutS2-G338R and HpMutS2-E413A were tested and compared to that of wild-type HpMutS2. […] Therefore, to determine the nucleotide binding efficiencies of HpMutS2, HpMutS2-G338R, and HpMutS2-E413A, intrinsic fluorescence properties of these proteins were exploited. HpMutS2 has two tryptophan residues at positions 551 and 644. A fluorescence-quenching assay was used to determine the ATP and ADP binding affinities of HpMutS2 and its mutants. Quenching of the Trp fluorescence was recorded upon titration with ATP and ADP in absence of any divalent metal ions. Saturation isotherms generated from the changes in the fluorescence emission spectra of HpMutS2, HpMutS2-G338R, and HpMutS2-E413A were used to calculate the dissociation constants for ATP and ADP (Figs. 2a, b and c respectively).
(§2) Fig. 2 Nucleotide binding affinities of a HpMutS2 b HpMutS2-G338R and c HpMutS2-E413A. Tryptophan fluorescence assays described in the Methods section were used to determine the nucleotide binding affinities of proteins.
(§3) Fluorescence spectroscopy analysis of HpMutS2 was carried out based on the intrinsic fluorescent signal of tryptophan. The proteins were dialyzed in buffer B (50 mM Tris pH 8.0 and 100 mM NaCl) for 4–6 h with at least two changes of the buffer. Fluorescence intensities were measured on a Shimadzu, RF 5000 spectrofluorimeter using a 1-cm stirred quartz cuvette at 25 °C. The emission spectra were recorded over a wavelength of 300–400 nm with an excitation wavelength of 280 nm. To measure the dissociation constants for ATP and ADP, small aliquots of cofactor were added to proteins (1 μM), and spectra were recorded. Each spectra recorded was an average of three scans. The maximum fluorescence intensities observed at around 340 nm were selected for calculating the difference in intrinsic fluorescence of protein alone and in the presence of ligand. Control titrations were conducted and all the fluorescence emission spectra were corrected by subtracting control spectra. The dissociation constants were calculated graphically using a plot of ΔF/ΔFmax versus ligand concentration. ΔF is the magnitude of the difference between the observed fluorescence intensity at a given concentration of ligand and the fluorescence intensity in the absence of ligand and ΔFmax is the difference at saturating concentration of ligand.

[2] = biological target: T2, HpMutS2 (Helicobacter pylori, UniProt O25338); experiment: as above; conditions: for Kd: no divalent metal ions, protein 1 μM, 25 °C, read-out: Kd (dissociation constant)
T2 construct: (A) HpMutS2 (1-762): Mol. wt; (kDa): 87.8; His6 (C); made in house; host or cells: E. coli Rosetta (DE3) pLysS
Description: as §1, §2, §3

[3] = biological target: T3, HpMutS2-E413A (Helicobacter pylori, UniProt O25338, E413A); experiment: as above; conditions: no divalent metal ions, protein 1 μM, 25 °C; read-out: Kd (dissociation constant)
T3 construct: (A) HpMutS2-E413A (1-762): Mol. wt; (kDa): 87.7; His6 (C); made in house; host or cells: E. coli Rosetta (DE3) pLysS
T3 sequence (O25338 1-762 E413A): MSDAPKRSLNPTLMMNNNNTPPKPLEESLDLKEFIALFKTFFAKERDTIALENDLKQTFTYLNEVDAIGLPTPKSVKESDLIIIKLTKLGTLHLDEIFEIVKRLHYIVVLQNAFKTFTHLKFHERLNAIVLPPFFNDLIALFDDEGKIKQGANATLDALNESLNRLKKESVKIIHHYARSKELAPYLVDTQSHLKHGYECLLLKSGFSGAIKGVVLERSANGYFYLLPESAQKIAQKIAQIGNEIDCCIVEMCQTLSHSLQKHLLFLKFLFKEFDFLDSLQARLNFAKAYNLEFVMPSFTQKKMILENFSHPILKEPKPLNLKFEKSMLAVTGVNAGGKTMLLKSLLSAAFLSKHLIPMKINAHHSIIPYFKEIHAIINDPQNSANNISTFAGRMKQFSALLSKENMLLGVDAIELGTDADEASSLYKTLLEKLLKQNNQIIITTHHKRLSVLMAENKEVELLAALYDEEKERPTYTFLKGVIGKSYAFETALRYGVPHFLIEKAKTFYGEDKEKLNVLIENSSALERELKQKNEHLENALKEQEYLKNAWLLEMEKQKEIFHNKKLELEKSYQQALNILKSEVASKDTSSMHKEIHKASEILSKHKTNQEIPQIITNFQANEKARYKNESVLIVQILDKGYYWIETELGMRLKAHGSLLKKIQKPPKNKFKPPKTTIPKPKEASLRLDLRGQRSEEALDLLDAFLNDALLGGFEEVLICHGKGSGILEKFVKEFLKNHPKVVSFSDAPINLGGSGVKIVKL
Description: as §1, §2, §3

[4] = biological target: T4, ssDNA-HpMutS2 complex (Helicobacter pylori, UniProt O25338); experiment: Chase experiment on preformed nucleoprotein complex; assay type: binding; conditions: highest concentration of ATP used (0.25–5 mM)
T4 construct: (A) HpMutS2 (1-762): Mol. wt; (kDa): 87.8; His6 (C); made in house; host or cells: E. coli Rosetta (DE3) pLysS
T4 sequence (O25338 1-762): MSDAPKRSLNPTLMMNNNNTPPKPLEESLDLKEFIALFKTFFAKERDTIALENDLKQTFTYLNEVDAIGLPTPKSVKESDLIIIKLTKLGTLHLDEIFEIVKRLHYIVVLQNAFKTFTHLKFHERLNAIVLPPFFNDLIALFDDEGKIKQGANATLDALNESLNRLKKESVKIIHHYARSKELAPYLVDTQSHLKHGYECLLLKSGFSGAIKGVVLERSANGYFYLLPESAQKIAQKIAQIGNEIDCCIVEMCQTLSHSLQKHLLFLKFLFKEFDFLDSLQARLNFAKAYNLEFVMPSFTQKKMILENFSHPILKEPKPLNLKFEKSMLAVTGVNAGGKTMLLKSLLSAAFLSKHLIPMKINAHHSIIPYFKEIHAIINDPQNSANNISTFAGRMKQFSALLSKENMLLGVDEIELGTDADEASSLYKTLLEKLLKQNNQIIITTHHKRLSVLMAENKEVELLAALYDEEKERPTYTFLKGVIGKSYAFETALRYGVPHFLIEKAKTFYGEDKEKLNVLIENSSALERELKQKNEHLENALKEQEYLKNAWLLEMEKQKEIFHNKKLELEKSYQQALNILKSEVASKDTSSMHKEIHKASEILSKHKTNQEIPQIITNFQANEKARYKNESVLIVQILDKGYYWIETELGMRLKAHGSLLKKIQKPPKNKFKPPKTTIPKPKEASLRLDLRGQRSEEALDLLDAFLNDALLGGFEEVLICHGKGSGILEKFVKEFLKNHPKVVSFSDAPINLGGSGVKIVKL

[5] = biological target: T5, HpMutS2-G338R (Helicobacter pylori 26695, UniProt O25338 1-762, G338R); experiment: EMSA; 1 mM ATP; EMSA: 0.16 nM DNA, buffer A (50 mM Tris pH 8.0, 50 mM NaCl, 1 mM DTT per Fig. S3 legend) with 0.1 ug/ul BSA, NaCl 110 mM, no divalent metal stated, 30 min on ice, 8% native PAGE at 4 C; nucleotides 1 mM; Hill-slope fit; conditions: protein: recombinant; tags: C-terminal His6; chain copies: 4; label: 5'-32P
[6] = biological target: T5, HpMutS2-G338R; experiment: EMSA; no nucleotide; EMSA: 0.16 nM DNA, buffer A (50 mM Tris pH 8.0, 50 mM NaCl, 1 mM DTT per Fig. S3 legend) with 0.1 ug/ul BSA, NaCl 110 mM, no divalent metal stated, 30 min on ice, 8% native PAGE at 4 C; nucleotides 1 mM; Hill-slope fit; conditions: protein: recombinant; tags: C-terminal His6; chain copies: 4; label: 5'-32P
[7] = biological target: T6, HpMutS2 (Helicobacter pylori 26695, UniProt O25338 1-762); experiment: as above; conditions: protein: recombinant; tags: C-terminal His6; chain copies: 4; label: 5'-32P
T6 sequence: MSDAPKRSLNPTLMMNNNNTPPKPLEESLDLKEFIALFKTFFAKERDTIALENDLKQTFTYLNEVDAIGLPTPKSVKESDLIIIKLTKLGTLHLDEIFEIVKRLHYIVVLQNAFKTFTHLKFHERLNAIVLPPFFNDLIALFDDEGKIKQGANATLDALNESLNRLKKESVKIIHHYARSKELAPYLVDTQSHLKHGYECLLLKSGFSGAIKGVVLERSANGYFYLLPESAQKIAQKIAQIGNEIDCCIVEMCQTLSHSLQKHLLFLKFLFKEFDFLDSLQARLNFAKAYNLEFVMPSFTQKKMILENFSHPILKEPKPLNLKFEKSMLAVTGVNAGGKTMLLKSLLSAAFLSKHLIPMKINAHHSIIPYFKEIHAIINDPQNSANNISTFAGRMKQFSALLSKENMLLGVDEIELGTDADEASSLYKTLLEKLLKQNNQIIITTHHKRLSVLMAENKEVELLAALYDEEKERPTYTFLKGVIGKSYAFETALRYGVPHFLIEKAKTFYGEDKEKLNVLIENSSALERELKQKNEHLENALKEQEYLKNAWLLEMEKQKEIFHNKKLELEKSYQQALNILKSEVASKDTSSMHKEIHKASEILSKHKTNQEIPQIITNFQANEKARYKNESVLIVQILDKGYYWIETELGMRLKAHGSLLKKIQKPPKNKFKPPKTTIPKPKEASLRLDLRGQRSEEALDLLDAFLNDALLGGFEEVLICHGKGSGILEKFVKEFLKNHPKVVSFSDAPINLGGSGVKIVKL

[8] = biological target: HpMutS2-E413A (Helicobacter pylori 26695, UniProt O25338 1-762, E413A); experiment: EMSA; no nucleotide; no plateau, value not accurate; EMSA: 0.16 nM DNA, buffer A (50 mM Tris pH 8.0, 50 mM NaCl, 1 mM DTT per Fig. S3 legend) with 0.1 ug/ul BSA, NaCl 110 mM, no divalent metal stated, 30 min on ice, 8% native PAGE at 4 C; nucleotides 1 mM; Hill-slope fit; conditions: protein: recombinant; tags: C-terminal His6; chain copies: 4; label: 5'-32P
[9] = biological target: T6, HpMutS2; experiment: EMSA; 1 mM ATPgS; EMSA: 0.16 nM DNA, buffer A (50 mM Tris pH 8.0, 50 mM NaCl, 1 mM DTT per Fig. S3 legend) with 0.1 ug/ul BSA, NaCl 110 mM, no divalent metal stated, 30 min on ice, 8% native PAGE at 4 C; nucleotides 1 mM; Hill-slope fit; conditions: protein: recombinant; tags: C-terminal His6; chain copies: 4; label: 5'-32P
[10] = biological target: T5, HpMutS2-G338R; experiment: EMSA; 1 mM ADP; EMSA: 0.16 nM DNA, buffer A (50 mM Tris pH 8.0, 50 mM NaCl, 1 mM DTT per Fig. S3 legend) with 0.1 ug/ul BSA, NaCl 110 mM, no divalent metal stated, 30 min on ice, 8% native PAGE at 4 C; nucleotides 1 mM; Hill-slope fit; conditions: protein: recombinant; tags: C-terminal His6; chain copies: 4; label: 5'-32P
[11] = biological target: T6, HpMutS2; experiment: as above; conditions: protein: recombinant; tags: C-terminal His6; chain copies: 4; label: 5'-32P

Molecule	Kd [1]	Kd [2]	Kd [3]	Kd value, fold less than Km value ([2]; wild-type HpMutS2)	dissociation of ssDNA from preformed complex [4]	Kd [5]	Kd [6]	Kd [7]	Kd [8]	Kd [9]	Kd [10]	Kd [11]
Nc1ncnc2c1ncn2[C@@H]1O[C@H](COP(=O)(O)OP(=O)(O)O)[C@@H](O)[C@H]1O [ADP]	318000 ± 68500 nM	149000 ± 31800 nM	239000 ± 82900 nM									
Nc1ncnc2c1ncn2[C@@H]1O[C@H](COP(=O)(O)OP(=O)(O)OP(=O)(O)O)[C@@H](O)[C@H]1O [ATP]	409000 ± 70400 nM	167000 ± 24300 nM	220000 ± 54200 nM	~ 2.4 fold	~ 20%							
B1						30.7 ± 3.43 nM	32.4 ± 3.32 nM	21.5 ± 2.28 nM	~73.8 nM	11.4 ± 0.19 nM	23.9 ± 2.91 nM	17.3 ± 2.89 nM
